These results are taken from patent US20140106387A1, “METHOD FOR CONTROLLING NAD(P)/NAD(P)H RATIO BY OXIDOREDUCTASE” (MD BIOALPHA CO., LTD., priority 2006, published 2014).

In test [1] the test system is HepG2 cells. Nature of the test: intracellular NADH / NAD(P)H concentration in HepG2 cells. Format: cell-based, human. As to the method: A water-soluble tetrazolium salt was used to monitor the amount of NAD(P)H through its reduction to a yellow colored formazan dye. The total amount of NAD(P)H within viable cells in the medium was determined periodically by a spectrophotometer. Cells were seeded in 96-well plates (2×10^4 cells/well) and were cultured in 100 μl of a medium containing fetal bovine serum (FBS) and antibiotics for 24 hours. Immediately after treatment of the cells with a candidate compound (e.g., pyrano-1,2-naphthoquinone) at indicated concentrations and a 1/10 volume of a CCK-8 solution (Dojindo Molecular Technology), absorbance measurements were carried out using a spectrophotometer. […] In addition, a medium blank was prepared with only medium and physiological saline. In order to monitor monochromatic fluorescence (350 nm), light was illuminated using a 75 W xenon arc lamp directed via a 10 Hz chopper wheel; specific fluorescence intensity was measured at a wavelength of 405±15 nm and 460±10 nm.

The test system of the next test is NQO1. Nature of the test: NAD(P)H recycling assay (decrease of NAD(P)H by NQO1-activating candidate compounds). Format: biochemical. The protocol: (10) NAD(P)H Recycling Assay
An NADH recycling assay was carried out using the above-extracted S9 supernatant or human recombinant NQO1 (hrNQO1). 20 μg of the S9 supernatant or 0.5 unit of hrNQO1 in conjunction with 200 μM NAD(P)H were added to a 25 mM Tris/HCl (pH 7.4) solution containing 0.2 mg/mL bovine serum albumin. The enzymatic reaction was initiated with addition of a […] compound and absorbance changes were monitored and recorded at 340 nm for 10 min.
For a variety of NQO1-activating candidate compounds as listed in Table 1 below, a decrease of NAD(P)H was measured based on the aforesaid experimental method (disclosed in Section 10 hereinbefore: NADH recycling assay). In addition, according to the experimental method given in Example 23, the body weight of ob/ob mice after four weeks was measured.
In this connection, the decreasing degree of NAD(P)H was expressed as a relative amount of NAD(P)H measured upon administration of the NQO1-activating candidate compound, by taking the amount of NAD(P)H in the absence of the NQO1 activator NAD(P)H to be 100. In addition, the degree of the body weight loss was expressed as a percentage of the body weight of ob/ob mice with administration of the NQO1-activating candidate compound, relative to the body weight of ob/ob mice without administration of the NQO1-activating candidate compound (control) after four weeks.

Test [2] can be described thus: mean body temperature after cold exposure. Type of test: in vivo, mouse. To be noted: ambient temperature of 4 for 12 hours.
Test [3] is described as follows: spontaneous locomotor activity. Type of test: in vivo, mouse. The note with it: C57BL/6 DIO mice, 3 hours after administration, measured for 7 hours. As to the method:
Pyrano-1,2-naphthoquinone was administered to C57BL/6 DIO mice, and 3 hours later spontaneous locomotor activity was measured using Versa MAX Activity Monitors & Analyzer (AccuSan Instruments, Columbus, Ohio, USA). […] In order to distinguish between spontaneous locomotor and stereotypic/grooming behavior, animal activity was measured by taking continuous interference of two different scanning lines caused by mice as an effective determination standard. The pyrano-1,2-naphthoquinone-administered group, the vehicle-administered group and the control group were respectively placed in each measuring apparatus, and activity and motion of animals were measured for 7 hours. For acclimation of the animals to the new environment, mice were placed in the apparatus 2 hours prior to measurement.

The nature of test [4]: Respiratory Quotient and indirect calorimetry. Format: in vivo, mouse. The protocol:
O2 consumption of animals was recorded by a known method. For indirect calorimetry, mice were individually housed in calorimetry chambers (Oxymax OPTO-M3 system; Columbus Instruments, Columbus, Ohio). Animals were allowed to acclimate to a new environment for 48 hours prior to the experiment, and amounts of O2 consumption and CO2 production were measured for […] every 30 minutes. Mice were given free access to food and drinking water during the first 24 h period, and animals were given access to drinking water only during the second 24 h period. Blood samples were taken from a heparinized tube, immediately placed on ice, centrifuged and stored at −20[…] for future use. Enzymatic colorimetry was employed for quantification of triglyceride (TG), total cholesterol, free fatty acids, and glucose (Beckman Instruments, CA). Plasma insulin (Linco Research, MO), TNFα (R&D System), adiponectin (Linco Research, MO), resistin (KOMED) and leptin (Linco Research, MO) were quantified by ELISA.
This Example was intended to examine effects of pyran-1,2-naphthoquinone on fat metabolism via measurement of Respiratory Quotient (RQ). Oxygen consumption and carbon dioxide production were measured using an Oxyscan open-circuit indirect calorimeter (AccuScan Instruments, Columbus, Ohio). This apparatus consisted of enclosed acrylic chambers (21×21×21 cm). Fresh air was drawn into each chamber at a rate of 1500 mL/min and then O2 and CO2 were allowed to pass through detectors. The concentrations of the gases were recorded in mL/kg body weight/min. RQ was calculated as the volume of CO2 produced (VCO2) divided by the volume of O2 consumed (VO2). A pyrano-1,2-naphthoquinone-administered group, a vehicle-administered group and a control group were placed in each apparatus, and RQ was measured for 7 hours. For acclimation of the animals to the new environment, mice were placed in the apparatus 2 hours prior to measurement.

The test system of test [5] is HepG2 cells. Kind of test: mitochondrial oxygen consumption (Clark-type oxygen electrode) in HepG2 cells. Type of test: cell-based, human. The text has this: FIG. 22 is a graph showing monitoring results of mitochondrial oxygen consumption using a Clark-type oxygen electrode;
In a further test the test system is HEK293 cells. Kind of test: calcium influx in NQO1-deficient HEK293 cells. Type of test: cell-based, human. The protocol:
Cells were grown on a coverslip in a culture medium for 24 hours, maintained in an RPMI 1640 serum-free medium for 1 hour, and pretreated with a calcium indicator Fluo-4 (5 μM) for 30 min. After pretreatment, the coverslip was mounted on a slide glass. […] Using an LSM Image Browser program (Carl Zeiss), 300 images taken for 10 min every 2 seconds were sorted and ordered in a time sequence and plotted on a graph.

The next test relates to eNOS. Nature of the test: phosphorylation of endothelial nitric oxide synthase (eNOS) in HUVEC. Format: cell-based, human. To be noted: 10 μM. As to the method: It is well-known that activation of AMPK activates NRF-1 and facilitates mitochondrial biogenesis. In addition, NO/cGMP activates PGC-1α and NRF-1 to facilitate mitochondrial biogenesis. In order to ascertain whether an NQO1 activator, which activates AMPK, is involved in production of nitric oxide (NO), a degree of phosphorylation, leading to an increase in activity of endothelial nitric oxide synthase (eNOS), was determined. […] The culture medium was replaced with a serum free EBM2 medium, and cells were treated with pyrano-1,2-naphthoquinone (10 μM) for a predetermined time. Phosphorylated eNOS was observed using Anti-[…] eNOS.

Consider `CC1(C)CCC2=C(O1)c1ccccc1C(=O)C2=O` [βL, 2,2-Dimethyl-3,4-dihydro-2H-benzo[h]chromene-5,6-dione], for which the “decrease of NAD(P)H” value in the test with HepG2 cells [1] (HepG2 cells having NQO1 activity, NAD(P)H fluorescence) is recorded as “about 40%”. Further, the “intracellular NADH concentration” value in the test with HepG2 cells [1] (HepG2 having an NQO1 activity, treatment for 2 hours, real-time measurement) is listed as “concentration-dependent decrease of NADH”. Besides, in the test with NQO1 (relative amount of NAD(P)H, amount in the absence of the NQO1 activator taken to be 100), the “Residual amount of NAD(P)H(%)” value came out at 61.27 ± 1.09%. Further, the “decrease of NAD(P)H and consequent body weight reduction” value in the test with NQO1 (summary of Table 1 in words) was “significant decrease of NAD(P)H”. Further, in test [2], the “mean body temperature after cold exposure” value is given as “more resistant to the cold”. Further, the spontaneous locomotor activity entry in test [3] was “significant difference in the motion and activity of animals”. Also, the “Respiratory Quotient (RQ)” value in test [4] (measured for 7 hours, vs vehicle-administered and control group) is recorded as “significant difference in a RQ value”. Also, the “oxygen consumption (indirect calorimetry)” value in test [4] (βL-treated mice) was “increases in night-time and day-time oxygen consumption”. The energy consumption result in test [4] (βL-treated mice vs control group) is listed as “higher energy consumption”. In addition, the mitochondrial oxygen consumption result in the test on HepG2 cells [5] is “increased”. Moreover, the calcium peak entry with HEK293 cells is on record as “not appeared”. For the same compound, the “time of maximum increase of phosphorylation of eNOS” value with eNOS is recorded as 30 min. The “phosphorylation of eNOS 2 hours later” value with eNOS (2 hours) was “not observed”.
